Assay results taken from patent US9067977B2, “Peptides derivatized with A-B-C-D- and their therapeutical use” (Novo Nordisk A/S, priority 2007, dated 2015).
Starred links: 1 amine or outer side, 2 acyl side, 3 side chain; linkers in the order of their positions; H or OH if unused. Non-standard residues stand in square brackets, D forms with d. Residues, ends and D or L forms follow the SMILES beside them. Groups on a side chain read outwards from the residue. *: point of attachment. X2 = O=C(O)CCCCCCCCCCCCCCCCCCC(=O)NCC1CCC(C(=O)*)CC1; C20 diacid = O=C(O)CCCCCCCCCCCCCCCCCCC(=O)*; C18 diacid = O=C(O)CCCCCCCCCCCCCCCCC(=O)*; d(βAsp) = O=C(O)[C@@H](CC(=O)[*:2])N[*:1]; γGlu = O=C(O)[C@H](CCC(=O)[*:2])N[*:1]; Desaminohistidyl = O=C(CCc1c[nH]cn1)*; AEEA = NCCOCCOCC(=O)O; Aib = CC(C)(N)C(=O)O; Inp = O=C(O)C1CCNCC1

Target: human serum albumin (HSA) (Homo sapiens, UniProt P02768)
Sequence (P02768 25-609): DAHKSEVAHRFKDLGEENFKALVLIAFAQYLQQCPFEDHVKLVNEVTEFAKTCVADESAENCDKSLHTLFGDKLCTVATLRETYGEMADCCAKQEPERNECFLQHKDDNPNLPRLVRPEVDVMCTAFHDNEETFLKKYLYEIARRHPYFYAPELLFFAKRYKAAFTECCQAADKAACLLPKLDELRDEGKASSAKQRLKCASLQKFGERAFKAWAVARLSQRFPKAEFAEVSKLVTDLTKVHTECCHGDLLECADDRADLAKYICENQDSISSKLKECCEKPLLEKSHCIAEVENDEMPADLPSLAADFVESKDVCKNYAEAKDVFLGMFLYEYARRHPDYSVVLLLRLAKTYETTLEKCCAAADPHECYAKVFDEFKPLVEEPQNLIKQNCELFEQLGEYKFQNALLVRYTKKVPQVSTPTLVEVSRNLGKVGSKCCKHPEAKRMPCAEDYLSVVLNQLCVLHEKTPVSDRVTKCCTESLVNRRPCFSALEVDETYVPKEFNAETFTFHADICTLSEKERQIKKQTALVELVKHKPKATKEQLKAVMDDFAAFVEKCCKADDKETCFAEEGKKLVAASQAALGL
Assay: Albumin binding affinity, competition scintillation proximity assay
Conditions: for EC50 at 20 h: human, biotinylated human serum albumin on streptavidin-SPA beads, pH 7.4
Experimental: Streptavidin-SPA beads (GE Healthcare RPNQ0009) were incubated with biotinylated HSA for 5 hours. The beads were washed with buffer to remove unbound HSA. […] After 20 hours of gentle rocking at room temperature the plates were centrifuged and counted on a TopCounter.

| SMILES | EC50 [nM] | EC50 at 20 h [nM] |
| --- | --- | --- |
| CC[C@H](C)[C@H](NC(=O)[C@H](Cc1ccccc1)NC(=O)[C@H](CCC(=O)O)NC(=O)[C@H](CCCNC(=N)N)NC(=O)[C@H](C)NC(=O)[C@H](C)NC(=O)[C@H](CCCCNC(=O)COCCOCCNC(=O)COCCOCCNC(=O)C[C@@H](NC(=O)C1CCN(C(=O)CCCCCCCCCCCCCCCCC(=O)O)CC1)C(=O)O)NC(=O)CNC(=O)[C@H](CCC(=O)O)NC(=O)[C@H](CC(C)C)NC(=O)[C@H](Cc1ccc(O)cc1)NC(=O)[C@H](CO)NC(=O)[C@H](CO)NC(=O)[C@@H](NC(=O)[C@H](CC(=O)O)NC(=O)[C@H](CO)NC(=O)[C@@H](NC(=O)[C@H](Cc1ccccc1)NC(=O)[C@@H](NC(=O)CNC(=O)[C@H](CCC(=O)O)NC(=O)C(C)(C)NC(=O)[C@@H](N)Cc1c[nH]cn1)[C@@H](C)O)[C@@H](C)O)C(C)C)C(=O)N[C@@H](C)C(=O)N[C@@H](Cc1c[nH]c2ccccc12)C(=O)N[C@@H](CC(C)C)C(=O)N[C@H](C(=O)N[C@@H](CCCNC(=N)N)C(=O)NCC(=O)N[C@@H](CCCNC(=N)N)C(=O)NCC(=O)O)C(C)C [Example 5] (H-H[Aib]EGTFTSDVSSYLEGK([AEEA-AEEA-d(βAsp)-Inp-C18 diacid])AAREFIAWLVRGRG-OH) | 300 to 800 | – |
| CC[C@H](C)[C@H](NC(=O)[C@H](Cc1ccccc1)NC(=O)[C@H](CCC(=O)O)NC(=O)[C@H](CCCCNC(=O)COCCOCCNC(=O)CC[C@H](NC(=O)CC[C@H](NC(=O)CCCCCCCCCCCNC(=O)CCCS(=O)(=O)NC(=O)CCCCCCCCCCCCCCCc1nnn[nH]1)C(=O)O)C(=O)O)NC(=O)[C@H](C)NC(=O)[C@H](C)NC(=O)[C@H](CCC(N)=O)NC(=O)CNC(=O)[C@H](CCC(=O)O)NC(=O)[C@H](CC(C)C)NC(=O)[C@H](Cc1ccc(O)cc1)NC(=O)[C@H](CO)NC(=O)[C@H](CO)NC(=O)[C@@H](NC(=O)[C@H](CC(=O)O)NC(=O)[C@H](CO)NC(=O)[C@@H](NC(=O)[C@H](Cc1ccccc1)NC(=O)[C@@H](NC(=O)CNC(=O)[C@H](CCC(=O)O)NC(=O)C(C)(C)NC(=O)[C@@H](N)Cc1c[nH]cn1)[C@@H](C)O)[C@@H](C)O)C(C)C)C(=O)N[C@@H](C)C(=O)N[C@@H](Cc1c[nH]c2ccccc12)C(=O)N[C@@H](CC(C)C)C(=O)N[C@H](C(=O)N[C@@H](CCCNC(=N)N)C(=O)O)C(C)C [Example 37, N-epsilon26-[2-(2-{2-[(S)-4-Carboxy-4-((S)-4-carboxy-4-{12-[4-(16-(1H-tetrazol-5-yl)hexadecanoylsulfamoyl)butyrylamino]-dodecanoylamino}butyrylamino)butyrylamino]ethoxy}ethoxy)acetyl][Aib8,Arg34]GLP-1-(7-34)] | – | 1 to 100 |
| CC[C@H](C)[C@H](NC(=O)[C@H](Cc1ccccc1)NC(=O)[C@H](CCC(=O)O)NC(=O)[C@H](CCCNC(=N)N)NC(=O)[C@H](C)NC(=O)[C@H](C)NC(=O)[C@H](CCC(N)=O)NC(=O)[C@H](CCC(=O)O)NC(=O)[C@H](CCC(=O)O)NC(=O)[C@H](CC(C)C)NC(=O)[C@H](Cc1ccc(O)cc1)NC(=O)[C@H](CO)NC(=O)[C@H](CO)NC(=O)[C@@H](NC(=O)[C@H](CC(=O)O)NC(=O)[C@H](CO)NC(=O)[C@@H](NC(=O)[C@H](Cc1ccccc1)NC(=O)[C@@H](NC(=O)CNC(=O)[C@H](CCC(=O)O)NC(=O)[C@H](C)NC(=O)CCc1c[nH]cn1)[C@@H](C)O)[C@@H](C)O)C(C)C)C(=O)N[C@@H](C)C(=O)N[C@@H](Cc1c[nH]c2ccccc12)C(=O)N[C@@H](CC(C)C)C(=O)N[C@H](C(=O)N[C@@H](CCCNC(=N)N)C(=O)NCC(=O)N[C@@H](CCCNC(=N)N)C(=O)NCC(=O)N[C@@H](CCCCNC(=O)COCCOCCNC(=O)COCCOCCNC(=O)CC[C@H](NC(=O)C1CCN(C(=O)CCCCCCCCCCCCCCCCCCC(=O)O)CC1)C(=O)O)C(=O)O)C(C)C [Example 7, [DesaminoHis7,Glu22,Arg26,Arg34]GLP-1-(7-37)-Lys(2-{2-[2-(2-{2-[2-((S)-4-Carboxy-4-{[1-(19-carboxynonadecanoyl)piperidine-4-carbonyl]amino}butyrylamino)ethoxy]ethoxy}acetylamino)ethoxy]ethoxy}acetyl)] (Desaminohistidyl-AEGTFTSDVSSYLEEQAAREFIAWLVRGRGK([AEEA-AEEA-γGlu-Inp-C20 diacid])-OH) | 300 to 800 | – |
| CC[C@H](C)[C@H](NC(=O)[C@H](Cc1ccccc1)NC(=O)[C@H](CCC(=O)O)NC(=O)[C@H](CCCNC(=N)N)NC(=O)[C@H](C)NC(=O)[C@H](C)NC(=O)[C@H](CCC(N)=O)NC(=O)[C@H](CCC(=O)O)NC(=O)[C@H](CCC(=O)O)NC(=O)[C@H](CC(C)C)NC(=O)[C@H](Cc1ccc(O)cc1)NC(=O)[C@H](CO)NC(=O)[C@H](CO)NC(=O)[C@@H](NC(=O)[C@H](CC(=O)O)NC(=O)[C@H](CO)NC(=O)[C@@H](NC(=O)[C@H](Cc1ccccc1)NC(=O)[C@@H](NC(=O)CNC(=O)[C@H](CCC(=O)O)NC(=O)C(C)(C)NC(=O)[C@@H](N)Cc1c[nH]cn1)[C@@H](C)O)[C@@H](C)O)C(C)C)C(=O)N[C@@H](C)C(=O)N[C@@H](Cc1c[nH]c2ccccc12)C(=O)N[C@@H](CC(C)C)C(=O)N[C@H](C(=O)N[C@@H](CCCNC(=N)N)C(=O)NCC(=O)N[C@@H](CCCNC(=N)N)C(=O)NCC(=O)N[C@@H](CCCCNC(=O)COCCOCCNC(=O)COCCOCCNC(=O)CC[C@H](NC(=O)C1CCN(C(=O)CCCCCCCCCCCCCCCCCCC(=O)O)CC1)C(=O)O)C(N)=O)C(C)C [Example 12, [Aib8, Glu22, Arg26, Arg34]GLP-1-(7-37)Lys[2-(2-[2-(2-[2-(2-((S)-4-[1-[19-Carboxynonadecanoyl]piperidine-4-carbonylamino]-4-carboxybutyrylamino)ethoxy)ethoxy]acetylamino)ethoxy]ethoxy)acetyl]amide] (H-H[Aib]EGTFTSDVSSYLEEQAAREFIAWLVRGRGK([AEEA-AEEA-γGlu-Inp-C20 diacid])-NH2) | 300 to 800 | – |
| CC[C@H](C)[C@H](NC(=O)[C@H](Cc1ccccc1)NC(=O)[C@H](CCC(=O)O)NC(=O)[C@H](CCCNC(=N)N)NC(=O)[C@H](C)NC(=O)[C@H](C)NC(=O)[C@H](CCC(N)=O)NC(=O)[C@H](CCC(=O)O)NC(=O)[C@H](CCC(=O)O)NC(=O)[C@H](CC(C)C)NC(=O)[C@H](Cc1ccc(O)cc1)NC(=O)[C@H](CO)NC(=O)[C@H](CO)NC(=O)[C@@H](NC(=O)[C@H](CC(=O)O)NC(=O)[C@H](CO)NC(=O)[C@@H](NC(=O)[C@H](Cc1ccccc1)NC(=O)[C@@H](NC(=O)CNC(=O)[C@H](CCC(=O)O)NC(=O)[C@H](C)NC(=O)CCc1c[nH]cn1)[C@@H](C)O)[C@@H](C)O)C(C)C)C(=O)N[C@@H](C)C(=O)N[C@@H](Cc1c[nH]c2ccccc12)C(=O)N[C@@H](CC(C)C)C(=O)N[C@H](C(=O)N[C@@H](CCCNC(=N)N)C(=O)NCC(=O)N[C@@H](CCCNC(=N)N)C(=O)NCC(=O)N[C@@H](CCCCNC(=O)COCCOCCNC(=O)COCCOCCNC(=O)CC[C@H](NC(=O)C1CCC(CNC(=O)CCCCCCCCCCCCCCCCCCC(=O)O)CC1)C(=O)O)C(=O)O)C(C)C (stereo partly shown) [Example 56, [DesaminoHis7,Glu22,Arg26,34]-GLP-1 (7-37)-Lys-[2-(2-{2-[2-(2-{2-[4-Carboxy-4-({4-[(19-carboxynonadecanoylamino)methyl]cyclohexanecarbonyl}amino)butyrylamino]ethoxy}ethoxy)acetylamino]ethoxy}ethoxy)acetyl] peptide] (Desaminohistidyl-AEGTFTSDVSSYLEEQAAREFIAWLVRGRGK([AEEA-AEEA-γGlu-X2])-OH) | 150 to 300 | – |
| CC[C@H](C)[C@H](NC(=O)[C@H](Cc1ccccc1)NC(=O)[C@H](CCC(=O)O)NC(=O)[C@H](CCCNC(=N)N)NC(=O)[C@H](C)NC(=O)[C@H](C)NC(=O)[C@H](CCC(N)=O)NC(=O)[C@H](CCC(=O)O)NC(=O)[C@H](CCC(=O)O)NC(=O)[C@H](CC(C)C)NC(=O)[C@H](Cc1ccc(O)cc1)NC(=O)[C@H](CO)NC(=O)[C@H](CO)NC(=O)[C@@H](NC(=O)[C@H](CC(=O)O)NC(=O)[C@H](CO)NC(=O)[C@@H](NC(=O)[C@H](Cc1ccccc1)NC(=O)[C@@H](NC(=O)CNC(=O)[C@H](CCC(=O)O)NC(=O)[C@H](C)NC(=O)CCc1c[nH]cn1)[C@@H](C)O)[C@@H](C)O)C(C)C)C(=O)N[C@@H](C)C(=O)N[C@@H](Cc1c[nH]c2ccccc12)C(=O)N[C@@H](CC(C)C)C(=O)N[C@H](C(=O)N[C@@H](CCCNC(=N)N)C(=O)NCC(=O)N[C@@H](CCCNC(=N)N)C(=O)NCC(=O)N[C@@H](CCCCNC(=O)CC[C@H](NC(=O)C1CCN(C(=O)CCCCCCCCCCCCCCCCCCC(=O)O)CC1)C(=O)O)C(=O)O)C(C)C [Example 62, [DesaminoHis7,Glu22,Arg26,34]-GLP-1 (7-37)-Lys-((S)-4-Carboxy-4-{[1-(19-carboxy-nonadecanoyl)-piperidine-4-carbonyl]-amino}-butyryl) peptide] (Desaminohistidyl-AEGTFTSDVSSYLEEQAAREFIAWLVRGRGK([γGlu-Inp-C20 diacid])-OH) | 300 to 800 | – |
| CC[C@H](C)[C@H](NC(=O)[C@H](Cc1ccccc1)NC(=O)[C@H](CCC(=O)O)NC(=O)[C@H](CCCNC(=N)N)NC(=O)[C@H](C)NC(=O)[C@H](C)NC(=O)[C@H](CCC(N)=O)NC(=O)CNC(=O)[C@H](CCC(=O)O)NC(=O)[C@H](CC(C)C)NC(=O)[C@H](Cc1ccc(O)cc1)NC(=O)[C@H](CO)NC(=O)[C@H](CO)NC(=O)[C@@H](NC(=O)[C@H](CC(=O)O)NC(=O)[C@H](CO)NC(=O)[C@@H](NC(=O)[C@H](Cc1ccccc1)NC(=O)[C@@H](NC(=O)CNC(=O)[C@H](CCC(=O)O)NC(=O)[C@H](C)NC(=O)CCc1c[nH]cn1)[C@@H](C)O)[C@@H](C)O)C(C)C)C(=O)N[C@@H](C)C(=O)N[C@@H](Cc1c[nH]c2ccccc12)C(=O)N[C@@H](CC(C)C)C(=O)N[C@H](C(=O)N[C@@H](CCCNC(=N)N)C(=O)NCC(=O)N[C@@H](CCCNC(=N)N)C(=O)N[C@@H](CCCCNC(=O)COCCOCCNC(=O)COCCOCCNC(=O)CC[C@H](NC(=O)[C@H]1CC[C@H](CNC(=O)CCCCCCCCCCCCCCCCCCC(=O)O)CC1)C(=O)O)C(=O)O)C(C)C [Example 31, N-epsilon37-[2-(2-{2-[2-(2-{2-[(S)-4-Carboxy-4-({trans-4-[(19-carboxy-nonadecanoylamino)methyl]cyclohexanecarbonyl}amino)butyrylamino]ethoxy}ethoxy)acetylamino]ethoxy}ethoxy)acetyl][DesaminoHis7,Arg26,Arg34,Lys37]GLP-1-(7-37)] | – | 300 to 800 |
